Experimental data from patent US20050027003A1, “Methods of therapeutic treatment using retinoids with reduced side effects” (Allergan, Inc., priority 2003, published 2005).
Read-outs that look alike come from different tables or passages of the source.

What was measured:
patients [1] = conditions: published data (N = 525); cited from earlier work
[2] = in vivo; cited from earlier work
[3] = in vivo; cited from earlier work; remark: listed apart in the source
[4] = oral; cited from earlier work
patients [5] = conditions: published data (N = 525); cited from earlier work; remark: listed apart in the source
RAR-α = target: T1, RAR-α (Homo sapiens, UniProt P10276); test: RAR-α activity; format: cell-based
T1 sequence (P10276 1-462): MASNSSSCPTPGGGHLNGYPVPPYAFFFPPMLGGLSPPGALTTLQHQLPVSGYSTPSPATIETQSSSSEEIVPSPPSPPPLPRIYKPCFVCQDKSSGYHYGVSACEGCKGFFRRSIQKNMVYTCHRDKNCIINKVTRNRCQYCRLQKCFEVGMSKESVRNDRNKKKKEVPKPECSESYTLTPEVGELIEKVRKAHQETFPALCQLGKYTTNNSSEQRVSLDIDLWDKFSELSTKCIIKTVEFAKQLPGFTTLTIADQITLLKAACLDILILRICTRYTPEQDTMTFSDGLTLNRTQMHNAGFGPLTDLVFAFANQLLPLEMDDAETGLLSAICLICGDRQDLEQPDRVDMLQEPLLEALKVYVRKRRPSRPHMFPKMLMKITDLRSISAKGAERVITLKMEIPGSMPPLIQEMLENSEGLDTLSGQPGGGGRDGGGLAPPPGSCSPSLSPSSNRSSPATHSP
Text: (§1) The selection of a retinoid component useful in accordance with the present invention can be accomplished using straightforward, conventional testing and/or assays, such as the transactivation assays set forth in Evans et al., U.S. Pat. Nos., 5,217,867; 5,262,300; 5,310,662; and 5,906,920, each of which is hereby incorporated in its entirety herein by reference, which are well known in the art. Such testing and/or assays can identify suitable useful retinoid components without undue experimentation.
(§2) Other well known and straightforward test methods and/or assays may be employed to determine the selectivity or specificity of an RAR active compound to RAR-alpha, RAR-beta and RAR-gamma. For example, using conventional and well known assays, for example, such as set forth in Klein et al. U.S. Pat. No. 5,776,699, the disclosure of which is incorporated in its entirety herein by reference, and/or the above-noted Evans et al. patents, the selectively or specificity of a compound to RAR-alpha, RAR-beta and RAR-gamma can be determined. Based on the results of such assays, one can determine whether or not a compound is useful in accordance with one or more aspects of the present invention.

RARs = test: Activation of and selectivity among the retinoic acid receptors; format: cell-based; conditions: relative to all-trans-retinoic acid, the natural ligand
Text: as §1, §2

[6] = Example 1: 6.3 mg oral tazarotene with high-fat meal vs 8-10 hour fast, pharmacokinetics; format: in vivo, human
Description: (§3) The LC-MS/MS test for simultaneous detection of tazarotene and tazarotenic acid may be run as follows. One ml of plasma (EDTA-treated) is diluted with 1.0 ml of water. Diluted plasma is extracted using solid phase extraction (SPE) on a C18 cartridge. The eluate is evaporated, reconstituted in a water/methanol-based mobile phase, and injected onto a 4.6×50 mm, 3 μm pore size C-8 reverse phase high pressure liquid chromatography (HPLC) column (Agilent, Wilmington, Del.). Compounds are gradient-eluted at 1.2 mL/min and detected using an API 3000 triple quadrupole mass spectrometer with an Atmospheric Pressure Chemical Ionization (APCI) source (PE-Sciex, Concord, Ontario, Canada). Molecular reaction monitoring enhances the sensitivity and selectivity of this assay by collisionally dissociating the protonated molecules for the analyte and an internal standard thereby forming the product ions. The specific precursor-product ion pair monitored are m/z 352→324 for tazarotene, m/z 359→331 for the tazarotene internal standard, m/z 324→294 for tazarotenic acid, and m/z 331+298 for the tazarotenic acid internal standard. The lower limit of quantitation at assay range tested is 0.1 ng/mL, with a coefficient of variation and deviation from nominal concentration of <15%.

[7] = Example 7: effect of body weight on plasma tazarotenic acid Cmax and AUC; format: in vivo, human; conditions: 6 mg tazarotene daily
Description: as §3, with “<15%. […]” for “<15%.”

Structure (SMILES): COc1cc(C)c(/C=C/C(C)=C/C=C/C(C)=C/C(=O)O)c(C)c1C [acitretin]
- Adverse event: Alopecia (patients [1]): 319 (60.8) number (%) of patients
- Adverse event: Arthralgia (patients [1]): 102 (19.4) number (%) of patients
- Adverse event: Atrophy of skin (patients [1]): 64 (12.2) number (%) of patients
- Adverse event: Back pain (patients [1]): 41 (7.8) number (%) of patients
- Adverse event: Cheilitis (patients [1]): 429 (81.7) number (%) of patients
- Adverse event: Dry Skin (patients [1]): 174 (33.1) number (%) of patients
- Adverse event: Dry mouth/Oral dryness (patients [1]): 76 (14.5) number (%) of patients
- Adverse event: Epistaxis (patients [1]): 61 (11.6) number (%) of patients
- Adverse event: Erythematous rash/Erythema (patients [1]): 57 (10.9) number (%) of patients
- Adverse event: Hyperesthesia (patients [1]): 66 (12.6) number (%) of patients
- Adverse event: Nail Disorder (patients [1]): 170 (32.4) number (%) of patients
- Adverse event: Paresthesia (patients [1]): 56 (10.7) number (%) of patients
- Adverse event: Paronychia/Nail disorder (patients [1]): 66 (12.6) number (%) of patients
- Adverse event: Pruritus (patients [1]): 157 (29.9) number (%) of patients
- Adverse event: Rhinitis (patients [1]): 153 (29.1) number (%) of patients
- Adverse event: Rigors/Chills (patients [1]): 67 (12.8) number (%) of patients
- Adverse event: Skin peeling/Desquamation (patients [1]): 345 (65.7) number (%) of patients
- Adverse event: Sticky skin/Skin disorder (patients [1]): 129 (24.6) number (%) of patients
- Adverse event: Xerophthalmia/Eye disorder (patients [1]): 112 (21.3) number (%) of patients
- bioavailability vs body weight [2]: increased with a reduced body weight
- interaction with coadministered contraceptives [3]: interferes with the contraceptive effect

Structure (SMILES): CCOC(=O)/C=C(C)/C=C/C=C(C)/C=C/c1c(C)cc(OC)c(C)c1C [etretinate]
- bioavailability vs body weight [2]: increased with a reduced body weight

Structure (SMILES): CC1=C(/C=C/C(C)=C/C=C/C(C)=C\C(=O)O)C(C)(C)CCC1 [isotretinoin]
- bioavailability vs body weight [2]: increased with a reduced body weight
- interaction with coadministered contraceptives [3]: decreases blood concentrations of both ethinyl estradiol and norethindrone
- total dose to reach the same peak blood concentration in the fasted state as following a high fat meal [4]: more than doubled
- Adverse event: Cheilitis (patients [5]): 472 (90.2) number (%) of patients
- Adverse event: Conjunctivitis (patients [5]): 201 (38.4) number (%) of patients
- Adverse event: Desquamation central face/Desquamation (patients [5]): 187 (35.8) number (%) of patients
- Adverse event: Dry Skin (patients [5]): 172 (32.9) number (%) of patients
- Adverse event: Dry nose (patients [5]): 136 (26.0) number (%) of patients
- Adverse event: Epistaxis (patients [5]): 121 (23.1) number (%) of patients
- Adverse event: Fingertip peeling/Desquamation (patients [5]): 63 (12.0) number (%) of patients
- Adverse event: Headache (patients [5]): 44 (8.4) number (%) of patients
- Adverse event: Irritation of eyes (patients [5]): 85 (16.3) number (%) of patients
- Adverse event: Joint pain/Arthralgia (patients [5]): 60 (11.5) number (%) of patients
- Adverse event: Pruritus (patients [5]): 127 (24.3) number (%) of patients
- Adverse event: Rash-dermatitis/Rash (patients [5]): 82 (15.7) number (%) of patients
- Adverse event: Red Scaly face/Desquamation (patients [5]): 54 (10.3) number (%) of patients
- Adverse event: Skin fragility/Skin disorder (patients [5]): 164 (31.4) number (%) of patients

Structure (SMILES): CC1(C)CCSc2ccc(C#Cc3ccc(C(=O)O)cn3)cc21 [tazarotenic acid]
- RAR-α activity (RAR-α): minimal
- receptor specificity and selectivity (RARs): specificity for the RARs and selectivity for RAR-β and RAR-γ
- average ratio of Cmax (test/reference) ([6]; Day 0, high-fat meal vs fasted): 1.00
- effect of high-fat meal on bioavailability or pharmacokinetics ([6]; single and multiple dose): does not substantially affect
- correlation of AUC with body weight ([7]; day 0): may be a correlation
- correlation between either Cmax or AUC and body weight ([7]; day 9): no correlation
